Measured values taken from patent US5948793A, “3-pyridyloxymethyl heterocyclic ether compounds useful in controlling neurotransmitter release” (Abbott Laboratories, priority 1995, dated 1999).
Counter-ions that a name gives are not always drawn.

What follows are compounds tested against neuronal nicotinic cholinergic channel receptors (assay: [3H]-cytisine displacement binding to neuronal nicotinic cholinergic channel receptors). Conditions: Table 2; [3H]-cytisine 1.25 nM, 60 min at 4° C.; dihydrochloride; read-out: Receptor Binding Ki.
Format: rat (crude synaptic membranes from whole rat brain)
Protocol: B. Protocol For Determination of Nicotinic Cholinergic Channel Receptor Binding Potencies of Ligands
Binding of [^3 H]-cytisine ([^3 H]-CYT) to nicotinic receptors was accomplished using crude synaptic membrane preparations from whole rat brain (Pabreza et al., Molecular Pharmaol., 1990, 39:9). Washed membranes were stored at -80° C. prior to use. Frozen aliquots were slowly thawed and resuspended in 20 volumes of buffer (containing: 120 mM NaCl, 5 mM KCl, 2 mM MgCl2, 2 mM CaCl2 and 50 mM Tris-Cl, pH 7.4 @4° C.). After centrifuging at 20,000×g for 15 minutes, the pellets were resuspended in 30 volumes of buffer. Homogenate (containing […]) was added to triplicate tubes containing concentrations of test compound and [^3 H]-CYT (1.25 nM) in a final volume of 500 μL. Samples were incubated for 60 minutes at 4° C., then rapidly filtered through Whatman GF/B filters presoaked in 0.5% polyethylimine using 3×4 mL of ice-cold buffer. The filters are counted in 4 mL of Ecolume® (ICN). […] Alternately, data were expressed as a percentage of the total specific binding.

With `Cc1ncccc1OC[C@H]1CCN1` [Example 41, 2-methyl-3-(2-(R)-azetidinylmethoxy)pyridine dihydrochloride] the Ki was 9.9 nM.
Work on `Cc1ncccc1OC[C@H]1CCN1` [Example 81, 2-methyl-3-(2-(R)-azetidinylmethoxy)pyridine dihydrochloride] yielded a Ki of 9.3 nM.

Same assay, conditions: Table 2; [3H]-cytisine 1.25 nM, 60 min at 4° C.; read-out: Receptor Binding Ki

First: C[C@@H]1CC[C@@H](COc2cccnc2)N1C [Example 89, 3-((trans-1,5-dimethyl-2-(S)-pyrrolidinyl)methoxy)pyridine hydrochloride]
Second: CN1CC[C@@H]1COc1cccnc1 [Example 63, 3-((1-methyl-2-(R)-azetidinyl)methoxy)pyridine dihydrochloride]
The Ki of the first is 65-fold higher: 91.2 nM for the first, 1.4 nM for the second.

First: O[C@H]1CN[C@H](COc2cccnc2)C1 [Example 72, 3-((trans-4-hydroxy-2-(S)-pyrrolidinyl)methoxy)pyridine dihydrochloride]
Second: CN1C[C@@H](C#N)C[C@H]1COc1cccnc1 [Example 90, 3-((cis-4-cyano-1-methyl-2(S)-pyrrolidinyl)methoxy)pyridine dihydrochloride]
The Ki of the first is 6-fold higher: 110 nM for the first, 18.4 nM for the second.

`COCC1C[C@@H](COc2cccnc2)N(C)C1` (stereo partly drawn) [Example 49, 3-((4-methoxymethyl-1-methyl-2-(S)-pyrrolidinyl)methoxy)pyridine dihydrochloride] and `C=CCN1CCC[C@H]1COc1cccnc1` [Example 82, 3-((1-allyl-2-(S)-pyrrolidinyl)methoxy)pyridine dihydrochloride] are within 1.5-fold of each other in Ki: 66 nM for the first, 72.4 nM for the second.

First: CN1CCC[C@H]1COc1cccnn1 [Example 79, 3-((1-methyl-2-(S)-pyrroidinyl)methoxy)pyridazine dihydrochloride]
Second: CN1CCC[C@H]1COc1nccs1 [Example 11, 2-((1-methyl-2-(S)-pyrrolidinyl)methoxy)thiazole hydrochloride]
The Ki of the first is 2.6-fold lower: 42.8 nM for the first, 110 nM for the second.

`FC(F)(F)c1cncc(OC[C@@H]2CCCN2)c1` [Example 66, 3-(2-(S)-pyrrolidinylmethoxy)-5-trifluoromethylpyridine dihydrochloride] and `Clc1ccc(OC[C@H]2CCCN2)cn1` [Example 58, 3-(2-(R)-pyrrolidinylmethoxy)-6-chloropridine hydrochloride] are within 1.5-fold of each other in Ki: 4 nM for the first, 5.3 nM for the second.

Compared with `Clc1ccc(OC[C@@H]2CCN2)nn1` [Example 85, 3-(2-(S)-azetidinylmethoxy)-6-chloropyridazine hydrochloride], `CN1CC[C@H]1COc1ccc(Cl)nc1` [Example 86, 3-((1-methyl-2-(S)-azetidinyl)methoxy)-6-chloropyridine hydrochloride] is 11-fold lower in Ki: 16 nM for the first, 1.43 nM for the second.

Going from `CN1CC[C@H]1COc1cncc(Br)c1` [Example 68, 3-((1-methyl-2-(S)-azetidinyl)methoxy)-5-bromopyridine dihydrochloride] to `CN1CCC[C@H]1COc1ccc(Cl)nc1` [Example 55, 6-chloro-3-((1-methyl-2-(S)-pyrrolidinyl)methoxy)pyridine dihydrochloride], the Ki falls from 4.5 nM to 0.63 nM (7.1-fold). The second binds more tightly here.

Same assay, conditions: read-out: Receptor Binding Ki

First: c1cncc(OC[C@H]2CCCN2)c1 [Example 2, 3-(2-(R)-pyrrolidinylmethoxy)pyridine dihydrochloride]
Second: Brc1ccncc1OC[C@@H]1CCCN1 [Example 20, 4-bromo-3-(2-(S)-pyrrolidinylmethoxy)pyridine dihydrochloride]
The Ki of the first is 2000-fold lower: 0.17 nM for the first, 341 nM for the second.

Compared with `CN1CCC[C@H]1COc1ccc(Cl)nn1` [Example 12, 3-((1-methyl-2-(S)-pyrrolidinyl)methoxy-6-chloropyridazine fumarate], `CN1CC[C@H]1COc1ccc(Cl)nn1` [Example 13, 6-chloro-3-((1-methyl-2(S)-azetidinyl)methoxy)pyridazine oxalate] is 2.2-fold higher in Ki: 29 nM for the first, 65 nM for the second. The first binds more tightly here.

Going from `CN1C[C@H](O)C[C@H]1COc1cccnc1` [Example 23, 3-((trans-1-methyl-4-hydroxy-2(S)-pyrrolidinyl)methoxy)pyridine dihydrochloride] to `Cc1ccc(OC[C@H]2CCCN2C)cn1` [Example 36, 6-methyl-3-((1-methyl-2-(R)-pyrrolidinyl)methoxy)pyridine dihydrochloride], the Ki falls from 78.3 nM to 26 nM (3-fold). The second binds more tightly here.
